For one data set, the system named is Oncorhynchus mykiss. Particulars: for NOEC: chronic/long-term.
The next data set concerns Mus musculus. The note with it: chronic; duration: 18 months; M; body weight.
The test system of a further data set is Apis mellifera. The note with it: acute, mortality.
The subject of a further data set is Tagia sp. The note with it: acute; duration: 14 days; mortality.
Another data set concerns Colinus virginianus. Particulars: acute; oral; mortality.
Another data set deals with Daphnia magna. The note with it: chronic/long-term; duration: 21 days; reproduction.
The test system of the next data set is Bibionidae. The note with it: chronic/long-term; duration: 28 days; development.
Another data set concerns Pimephales promelas. Particulars: chronic/long-term; duration: 36 days; time to hatch.
The test system of another data set is Typhlodromus pyri. The note with it: not reported; mortality.
The next data set concerns Chrysoperla externa. Particulars: not reported; mortality.

Converted amounts (≈) assume the structure as drawn.

For orientation: NOAEL means the highest dose or exposure tested at which no adverse effect was seen. Regarding `CNC(=O)/C(=N/OC)c1ccccc1COc1cc(C)ccc1C` [Dimoxystrobin], the LC50 with Oncorhynchus mykiss (acute, duration: 96 hours, mortality) was 0.0434 µg/mL (≈ 0.133 µM); in the data set with Rattus norvegicus (acute, oral, diet, mortality), 5 mg/kg-day; in the data set on Anas platyrhynchos (short-term, oral, feed, mortality) it was more than 232 mg/kg-day; in the data set with Tagia sp. it was 47.3 mg/kg. For the same compound, the NOEC with Oncorhynchus mykiss (duration: 28 days, mortality) was determined as 0.01 mg/L; in the data set with Oncorhynchus mykiss (duration: 97 days, behavior), 0.000316 mg/L; with Anas platyrhynchos (reproductive), 36 mg/kg-day; in the data set with Daphnia magna it was 0.0125 mg/L; in the data set with Bibionidae it was 0.01 mg/L; in the data set on Pimephales promelas, 0.016 mg/L. The no observed adverse effect level (NOAEL) is 4 mg/kg-day in the data set with Rattus norvegicus (short-term, duration: 7 days, clinical chemistry) and 4 mg/kg-day in the data set on Mus musculus. In addition, the LD50 in the data set on Apis mellifera (dermal) is more than 100 µg/piece; in the data set with Apis mellifera (duration: 48 hours, oral, unspecified), more than 79.4 µg/piece; in the data set with Colinus virginianus, more than 2000 mg/kg. Further, the LEL in the data set on Typhlodromus pyri and in the data set with Chrysoperla externa was 200 g/ha throughout.

These data come from EPA's ToxValDB 9.5 (doi:10.2903/j.efsa.2005.46r).
